Laboratory results: patent US8940915B2, “Solvent for recovery of maleic anhydride from a gas stream” (Huntsman Petrochemical LLC, priority 2011, dated 2015)
Values after ≈ are worked out from the molar mass of the structure shown.

Assays:
[1] = Toxicity statement
[2] = Solubility of maleic anhydride in the solvent; assay type: physicochemical; conditions: maleic anhydride dissolved in dibutyl adipate, at 60° C.
[3] = Solubility in water; assay type: physicochemical; conditions: at 25° C.
[4] = Solubility of fumaric acid in the solvent; assay type: physicochemical; conditions: fumaric acid dissolved in dibutyl adipate, at 60° C.

Compound: CCCCOC(=O)CCCCC(=O)OCCCC [dibutyl adipate, Di-n-butyl adipate]
- Toxicity (in words) [1]: neither dibutyl adipate nor any of its hydrolysis products is toxic
- Solubility of Maleic Anhydride [2]: >20 wt % at 60 °C
- solubility [3]: 35 µg/mL (≈ 135 µM)
- Solubility of Fumaric Acid [4]: about 0.15 wt % at 60 °C
